The results in this text go back to ChEMBL document CHEMBL5380844, “Discovery of a Novel, Potent, Orally Active, and Safe Inhibitor Targeting Human Mitochondrial RNA Polymerase” (J Med Chem, 2023).

Converted amounts (≈) assume the structure as drawn. The source made the active and inactive calls.

A short description of series [1]: Inhibition of ND1 transcript level in human A2780 cells at 500 nM measured after 12 hrs by RT-qPCR analysis relative to control. In kind it is functional. (In general: In qPCR the cycle at which signal appears reflects the starting amount.)
A short description of series [2]: AUC (0 to infinity) in ICR mouse at 1 mg/kg, iv measured upto 24 hrs by LC-MS/MS analysis. In kind it is ADME, organism-based. Also noted: time < 24 hrs, dose 1 mg/kg, route iv. Particulars: in vivo.
Series [3] in a line: Cmax in ICR mouse at 1 mg/kg, iv measured upto 24 hrs by LC-MS/MS analysis. In kind it is ADME, organism-based. More on the design: time < 24 hrs, dose 1 mg/kg, route iv. Particulars: in vivo.
A short description of series [4]: AUC (0 to t) in ICR mouse at 1 mg/kg, iv measured upto 24 hrs by LC-MS/MS analysis. In kind it is ADME, organism-based. Also noted: time < 24 hrs, dose 1 mg/kg, route iv. Particulars: in vivo.
Series [5] is described as follows: Volume of distribution at steady state in ICR mouse at 1 mg/kg, iv measured upto 24 hrs by LC-MS/MS analysis. The settings on record: in vivo, read-out: Vdss. In kind it is ADME, organism-based.
In series [6] the test system is A2780. Kind of series: Antiproliferative activity against human A2780 cells incubated for 168 hrs by SRB method. In kind it is functional, cell-based. The settings on record: A2780, 168 h.
The nature of series [7]: Half life in ICR mouse at 1 mg/kg, iv measured upto 24 hrs by LC-MS/MS analysis. Particulars: in vivo. In kind it is ADME, organism-based.
Series [8] is described as follows: Half life in ICR mouse at 10 mg/kg, po measured upto 24 hrs by LC-MS/MS analysis. In kind it is ADME, organism-based. Particulars: in vivo.
Series [9] in a line: Cmax in ICR mouse at 10 mg/kg, po measured upto 24 hrs by LC-MS/MS analysis. In kind it is ADME, organism-based. Also noted: time < 24 hrs, dose 10 mg/kg, route po. The settings on record: in vivo.
A short description of series [10]: Oral bioavailability in ICR mouse at 10 mg/kg measured upto 24 hrs by LC-MS/MS analysis. In kind it is ADME, organism-based. The settings on record: in vivo.
Series [11] in a line: MRT in ICR mouse at 1 mg/kg, iv measured upto 24 hrs by LC-MS/MS analysis. Particulars: in vivo. In kind it is ADME, organism-based.
The nature of series [12]: Clearance in ICR mouse at 1 mg/kg, iv measured upto 24 hrs by LC-MS/MS analysis. In kind it is ADME, organism-based. Particulars: in vivo.
Series [13] is described as follows: AUC (0 to t) in ICR mouse at 10 mg/kg, po measured upto 24 hrs by LC-MS/MS analysis. Also noted: dose 10 mg/kg, time < 24 hrs, route po. The settings on record: in vivo. In kind it is ADME, organism-based.
Series [14] can be described thus: Apparent permeability across apical to basolateral side in human Caco-2 cells at 3 uM incubated for 2 hrs by LC-MS/MS analysis. In kind it is ADME, cell-based. A general note: Caco-2 monolayers are a common model of the intestinal barrier.
Series [15] has as its system A2780. Kind of series: Antitumor activity against human A2780 cells xenografted in BALB/c nude mouse model assessed as induction of tumor shrinkage 100 mg/kg by H and E staining based immunohistochemical analysis. In kind it is functional, organism-based. For orientation: In xenograft studies the graft and the host belong to different species.
Series [16] can be described thus: Toxicity in Balb/c mouse assessed as effect on spleen at 100 mg/kg by H and E staining based analysis. In kind it is organism-based. Particulars: in vivo.
Series [17] can be described thus: Toxicity in Balb/c mouse assessed as effect on liver at 100 mg/kg by H and E staining based analysis. In kind it is organism-based. The settings on record: in vivo.
The next series concerns MDA-MB-231. The series is described as follows: Antiproliferative activity against human MDA-MB-231 cells incubated for 168 hrs by SRB method. In kind it is functional, cell-based. Particulars: MDA-MB-231, 168 h.
The next series concerns HeLa. Kind of series: Antiproliferative activity against human HeLa cells incubated for 168 hrs by SRB method. In kind it is functional, cell-based.
Series [18] is described as follows: Acute toxicity in Balb/c mouse assessed as effect on kidney 100 mg/kg measured after 27 days by H and E staining based analysis. In kind it is organism-based. The settings on record: in vivo, 648 h, time 27 day.
The next series concerns HepG2. Kind of series: Antiproliferative activity against human HepG2 cells incubated for 168 hrs by SRB method. The settings on record: HepG2, 168 h. In kind it is functional, cell-based.
The nature of series [19]: Solubility in PBS at pH 7.4. In kind it is physicochemical.
A further series relates to DLD-1. Kind of series: Antiproliferative activity against human DLD-1 cells incubated for 168 hrs by SRB method. In kind it is functional, cell-based. The settings on record: DLD-1, 168 h.
For a further series, the system named is MIA PaCa-2. The series is described as follows: Antiproliferative activity against human MIA PaCa-2 cells incubated for 168 hrs by SRB method. Particulars: MIA PaCa-2, 168 h. In kind it is functional, cell-based.
Series [20] in a line: Acute toxicity in Balb/c mouse assessed as effect on liver 100 mg/kg measured after 27 days by H and E staining based analysis. In kind it is organism-based. Particulars: in vivo, 648 h, time 27 day.
For a further series, the system named is IMR-90. The series is described as follows: Antiproliferative activity against human IMR-90 cells incubated for 168 hrs by SRB method. In kind it is functional, cell-based. The settings on record: IMR-90, 168 h.
The next series deals with NCI-H1975. The series is described as follows: Antiproliferative activity against human NCI-H1975 cells incubated for 168 hrs by SRB method. In kind it is functional, cell-based. The settings on record: NCI-H1975, 168 h.
Another series concerns MDA-MB-468. The series is described as follows: Antiproliferative activity against human MDA-MB-468 cells incubated for 168 hrs by SRB method. In kind it is functional, cell-based. The settings on record: MDA-MB-468, 168 h.
Another series deals with NCI-H3122. Kind of series: Antiproliferative activity against human NCI-H3122 cells incubated for 168 hrs by SRB method. In kind it is functional, cell-based. Particulars: NCI-H3122, 168 h.
A short description of series [21]: Antiproliferative activity against human PBMC cells incubated for 168 hrs by SRB method. In kind it is functional, cell-based.
Series [22] in a line: Toxicity in Balb/c mouse assessed as effect on heart at 100 mg/kg by H and E staining based analysis. In kind it is organism-based. Particulars: in vivo.
The subject of series [23] is A2780. Kind of series: Antitumor activity against human A2780 cells xenografted in BALB/c nude mouse model assessed as reduction in ND1 expression in liver at 100 mg/kg, po administered daily. In kind it is functional, organism-based.
The nature of series [24]: Toxicity in Balb/c mouse assessed as effect on lung at 100 mg/kg by H and E staining based analysis. In kind it is organism-based. The settings on record: in vivo.
Series [25] concerns A2780. Kind of series: Antitumor activity against human A2780 cells xenografted in BALB/c nude mouse model assessed as reduction in tumor weight at 100 mg/kg, po administered daily and measured after 27 days relative to control. In kind it is functional. More on the design: scale not given: the % may be the effect or the level left. Particulars: time 27 day.
Series [26] has as its system A2780. Kind of series: Antitumor activity against human A2780 cells xenografted in BALB/c nude mouse model assessed as reduction in mitochondrial DNA transcript level at 100 mg/kg, po administered daily. In kind it is functional, organism-based.
Series [27] can be described thus: Toxicity in Balb/c mouse assessed as effect on kidney at 100 mg/kg by H and E staining based analysis. In kind it is organism-based. Particulars: in vivo.
A further series has as its system A549. Kind of series: Antiproliferative activity against human A549 cells incubated for 168 hrs by SRB method. The settings on record: A549, 168 h. In kind it is functional, cell-based.

On to `Cc1ccc(-c2cc(=O)oc3cc(O[C@H](C)C(=O)N4CC5CCC(C4)N5)ccc23)c(C)c1`, for which, in [1], at 0.5 µM the inhibition was 7%. Further, in [2], the AUC(0-inf) – broadly, the area under the concentration-time curve extrapolated to infinity – turned out to be 351 ng·h/mL. Moreover, the results for the highest concentration (Cmax) in [3] and in series [9] were 234 ng/mL and 66.6 ng/mL, respectively. The AUC(0-t) (in general, the area under the concentration-time curve up to a stated or last time point) at 24 h in series [4] stood at 294 ng·h/mL; in series [13], 403 ng·h/mL. For the same compound, the Vd in series [5] was determined as 5.84 L/kg. For the same compound, in the series with A2780 [6], the midpoint of inhibition, the IC50, lay at 27 nM. In addition, the half-life – broadly, the time needed for the level to fall by half in the phase considered – is 1.61 h in series [7] and 2.67 h in series [8]. For the same compound, the bioavailability (usually the share of a dose that reaches the circulation, judged against a reference dose that is usually intravenous) in [10] was determined as 13.7%. The MRT (in general, a mean duration of stay, worked out from the concentration-time curve) in series [11] came to 2.05 h. The clearance (in general, the rate of elimination divided by the concentration) in series [12] was 47.6 mL/min/kg.
Regarding `Nc1cc(N2CCCCC2)nc(N)[n+]1[O-]` [MINOXIDIL], the Papp A→B – broadly, how fast a substance crosses the layer from the apical side – at 2 h, 3 µM in series [14] came to 6.79 ×10⁻⁶ cm/s.
With `C[C@@H](Oc1ccc2c(-c3ccc(F)cc3Cl)cc(=O)oc2c1)C(=O)N1CCC[C@H](C(=O)O)C1`, the result in the series on A2780 [15], in the series on A2780 [23] and in the series with A2780 [26] was Active. Further, the Activity entry in series [16], in series [17], in series [18], in series [20], in [22] and in [24] was “Non-Toxic” in each case. Also, the Activity with A2780 [25] is on record as 56.75%; in series [27], “Non-Toxic”. Also, the inhibition (in general, the relative decrease from the control value, in per cent) at 0.5 µM in series [1] was 25%. For the same compound, the 50% inhibitory concentration (IC50) (as a rule, the point on the concentration scale where inhibition reaches its midpoint) is above 10000 nM in the series on MDA-MB-231; 1050 nM in the series on HeLa; 168 nM in the series on HepG2; 142 nM in the series on DLD-1; 152 nM in the series on MIA PaCa-2; 138 nM in the series on A2780 [6]. For the same compound, the IC50 in the series with IMR-90 was above 50000 nM; in the series with NCI-H1975 it was 221 nM; in the series on MDA-MB-468, 189 nM; in the series on NCI-H3122, above 10000 nM; in series [21] it was above 50000 nM; in the series with A549 it was 881 nM. Also, the concentration in solution in series [19] (solubility) came to 6.49 µg/mL (≈ 13.7 µM).
In turn, `C[C@@H](Oc1ccc2c(-c3ccc(F)cc3Cl)cc(=O)oc2c1)C(=O)Nc1ncco1` showed an inhibition at 0.5 µM in series [1] of 81%. Also, the IC50 in the series with A2780 [6] was 1220 nM.
Regarding `C[C@@H](Oc1ccc2c(-c3ccc(F)cc3Cl)cc(=O)oc2c1)C(=O)Nc1ccccn1`, the inhibition at 0.5 µM in series [1] was 77%. In the series with A2780 [6], this compound showed an IC50 of 894 nM.
